± gives the standard deviation of the averaged measurements.
Assays:
Test in all cases: drug sensitivity score (DSS) (DSS score); higher = more sensitive (stronger growth inhibition); extreme values may be limits of the assay
[1] = system: Ba/F3 P210-BCR-ABL1 RUNX1-/- (mouse)
Summary of the method: (§1)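 Mouse Ba/F3 cells, either CRISPR/Cas9-edited at a target exon or edited-control clones, were screened against a 528-compound library on pre-printed 384-well plates. Each compound was tested at five concentrations across a 10,000-fold range, with 10,000 cells per well in RPMI with 10% FBS for 72 h at 37 °C and 5% CO2. CellTiter-Glo luminescence was scaled between vehicle and positive-control wells, and each dose-response was summarised as a drug sensitivity score. Scores were averaged over two replicates.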

[2] = system: Ba/F3 P210-BCR-ABL1 RUNX1-/mut (mouse)
Summary of the method: as §1

[3] = system: Ba/F3 P210-BCR-ABL1 RUNX1wt/wt control (mouse)
Summary of the method: as §1

Structure (SMILES) | drug sensitivity score [1] | drug sensitivity score [2] | drug sensitivity score [3]
COc1cc2c(Oc3ccc4[nH]c(C)cc4c3F)ncnc2cc1OCCCN1CCCC1 [Cediranib] | 0 | 0 | 0
CC#CC(=O)N1CC[C@@H](n2c(=O)n(-c3ccc(Oc4ccccc4)cc3)c3c(N)ncnc32)C1 [Tirabrutinib] | 0.85 ± 0.92 | 0.65 ± 0.78 | 0
CC(C)(C)C[C@@H]1N[C@@H](C(=O)N[C@H]2CC[C@H](O)CC2)[C@H](c2cccc(Cl)c2F)[C@]12C(=O)Nc1cc(Cl)ccc12 | 6.65 ± 1.3 | 6.95 ± 1.9 | 0.75 ± 0.35
COc1cc(Nc2ncc(F)c(Nc3ccc4c(n3)NC(=O)C(C)(C)O4)n2)cc(OC)c1OC [Tamatinib] | 7.15 ± 0.78 | 4.15 ± 0.071 | 5.8 ± 0.28
CCn1cc(-c2ccnc3[nH]c(-c4cccc(CN(C)C)c4)cc23)c(-c2ccc(NC(=O)N(C)C)cc2)n1 | 14.6 ± 2.2 | 9.15 ± 1.5 | 0.3 ± 0.28
C[C@H]1O[C@@H](O[C@H]2[C@@H](O)C[C@H](O[C@H]3[C@@H](O)C[C@H](O[C@H]4CC[C@@]5(C)[C@H](CC[C@@H]6[C@@H]5C[C@@H](O)[C@]5(C)[C@@H](C7=CC(=O)OC7)CC[C@]65O)C4)O[C@@H]3C)O[C@@H]2C)C[C@H](O)[C@@H]1O [Digoxin] | 0 | 0.05 ± 0.071 | 0
CC[C@@](C)(Nc1ccnc(-c2c[nH]c3ncccc23)n1)C(=O)NCC(F)(F)F [Decernotinib] | 0.5 ± 0.28 | 0 | 0.55 ± 0.21
CCCN(CCC)C(=O)C1=Cc2ccc(-c3ccc(C(=O)N4CCCC4)cc3)cc2N=C(N)C1 [Motolimod] | 1.45 ± 0.35 | 1 ± 1.1 | 0
CCn1c(=O)c(-c2ccc(Cl)cc2Cl)cc2cnc(Nc3ccc(N4CCNCC4)c(F)c3)nc21 [FRAX486] | 23.2 ± 1.2 | 16.4 ± 0.42 | 8.95 ± 0.64
O=C(/C=C\n1cnc(-c2cc(C(F)(F)F)cc(C(F)(F)F)c2)n1)NNc1ccccn1 [Verdinexor] | 14.4 ± 0.92 | 13.3 ± 0.57 | 9.1 ± 0.42
Cc1cc(C(C)Nc2ccccc2)c2nc(N3CCOCC3)cc(=O)n2c1 (stereo not given) [TGX-221] | 2.7 ± 2.4 | 2.4 ± 3.1 | 0
CN(C)CC#Cc1ccc(OCCCc2sc(N3CCc4cccc(C(=O)Nc5nc6ccccc6s5)c4C3)nc2C(=O)O)c(F)c1 | 5.55 ± 0.071 | 5.95 ± 4.7 | 3 ± 0.14
Nc1nc(N)c2nc(-c3cccc(O)c3)c(-c3cccc(O)c3)nc2n1 [TG100-115] | 3.1 ± 0.57 | 4.65 ± 0.49 | 0
COC(=O)C[C@](O)(CCCC(C)(C)O)C(=O)O[C@@H]1C(OC)=C[C@]23CCCN2CCc2cc4c(cc2[C@H]13)OCO4 [Omacetaxine] | 33.8 ± 2.5 | 35.4 ± 3.7 | 28.8 ± 0.92
COc1cc(N2CCC(N3CCN(C)CC3)CC2)ccc1Nc1ncc(Cl)c(Nc2ccccc2P(C)(C)=O)n1 [Brigatinib] | 4.95 ± 0.35 | 2.55 ± 3.6 | 0.1 ± 0.14
Cc1ncc(Cl)cc1NCc1ccc(C(=O)N[C@@H](CC2CCCC2)C(=O)NC2CC2)s1 | 4.65 ± 0.21 | 4 ± 4.5 | 0
CCn1c(-c2nonc2N)nc2c(C#CC(C)(C)O)ncc(OC[C@H]3CCCNC3)c21 | 0.75 ± 1.1 | 1.45 ± 2 | 0
CN1CCC(COc2cnc(-c3cccc(Cn4nc(-c5cccc(C#N)c5)ccc4=O)c3)nc2)CC1 [Tepotinib] | 2.8 ± 1.3 | 2.5 ± 3.5 | 0

Structure (SMILES) | drug sensitivity score [1] | drug sensitivity score [2] | drug sensitivity score [3]
COc1ncc(-c2ccc3nccc(-c4ccnnc4)c3c2)cc1NS(=O)(=O)c1ccc(F)cc1F [Omipalisib] | 12.3 ± 1.4 | 11.9 ± 3.4 | 7.8 ± 0.28
CC[C@H](NC(=O)[C@H](C)NC)C(=O)N1C[C@@H](O)C[C@H]1Cc1c(-c2[nH]c3cc(F)ccc3c2C[C@@H]2C[C@H](O)CN2C(=O)[C@H](CC)NC(=O)[C@H](C)NC)[nH]c2cc(F)ccc12 [Birinapant] | 14 ± 5.5 | 4.15 ± 5.2 | 6.15 ± 0.071
COc1ccc(-c2nc(N3CCOCC3)c3sc(CN(C)c4ncc(C(=O)NO)cn4)cc3n2)cn1 [CUDC-907] | 40.9 ± 0.85 | 43.65 ± 0.35 | 39 ± 0.57
O=C(/C=C\n1cnc(-c2cc(C(F)(F)F)cc(C(F)(F)F)c2)n1)NNc1cnccn1 [Selinexor] | 24 ± 1.7 | 23 ± 0.99 | 16.55 ± 0.071
CN1CC[C@@H](NC(=O)Nc2ccc(C#N)cc2)C[C@@H]1c1nc2ccccc2[nH]1 [Glasdegib] | 0 | 0 | 0.05 ± 0.071
COc1cc(NS(C)(=O)=O)ccc1Nc1c2ccccc2nc2ccccc12 [Amsacrine] | 35.3 ± 2.7 | 25.3 ± 0.71 | 21.6 ± 0.85
COc1c(OCCCN2CCOCC2)ccc2c1N=C(NC(=O)c1cnc(N)nc1)N1CCN=C21 [Copanlisib] | 8.65 ± 1.5 | 6.1 ± 3.4 | 1.4 ± 0.99
Cn1cc(-c2ccc(F)c(C(F)(F)F)c2)nc1C1CCN(c2ncnc3[nH]ncc23)CC1 | 1.55 ± 1.3 | 0.7 ± 0.99 | 0
CC(C)(C)c1nc(-c2cccc(NS(=O)(=O)c3c(F)cccc3F)c2F)c(-c2ccnc(N)n2)s1 [Dabrafenib] | 2.6 ± 0.85 | 0.05 ± 0.071 | 2.2 ± 0.42
Nc1cc(COc2c(Cl)cc(C[C@H](N)C(=O)O)cc2Cl)c2oc(-c3ccccc3)nc2c1 [JPH203] | 0 | 0 | 0
COCC1(CO)C(=O)C2CCN1CC2 (stereo not given) [APR-246] | 1.05 ± 1.5 | 1.4 ± 2 | 0.35 ± 0.49
CCNc1nc(Nc2cc(F)c(C(=O)N3CCOCC3)cc2OC)ncc1C(F)(F)F [GNE-7915] | 0 | 0 | 0
CC[C@@H]1CN(C(=O)NCC(F)(F)F)C[C@@H]1c1cnc2cnc3[nH]ccc3n12 [Upadacitinib] | 0.75 ± 1.1 | 0.05 ± 0.071 | 5.35 ± 3
Cc1cccc(CC(=O)N2CCc3c2ccc(-c2cn(C)c4ncnc(N)c24)c3F)n1 | 1.85 ± 0.49 | 0.55 ± 0.21 | 2.45 ± 0.35
CN(C)Cc1ccc(S(=O)(=O)n2ccc(/C=C/C(=O)NO)c2)cc1 [Resminostat] | 15.8 ± 0.78 | 15.2 ± 0.92 | 13.1 ± 0.57
COC(=O)c1ccc2c(c1)NC(=O)/C2=C(\Nc1ccc(N(C)C(=O)CN2CCN(C)CC2)cc1)c1ccccc1 [Nintedanib] | 17.4 | 8.15 ± 4.6 | 5.4 ± 0.14
CC1(C)OCCn2c1nc1c(N3CCOCC3)nc(-c3cnc(N)nc3)nc12 [GDC-0084] | 9.3 ± 0.14 | 10.3 ± 0.85 | 4.8

Source: the supplement of paper PMC8024199
